Data reported in ChEMBL document CHEMBL1147043, “Comparative metabolism of radiolabeled muraglitazar in animals and humans by quantitative and qualitative metabolite profiling” (Drug Metab Dispos, 2007).

Columns and labels:
[1] = Drug concentration in bile duct-cannulated CD1 mouse bile at 40 mg/kg, po after 24 hrs; assay type: ADME, organism-based; parameters: dose 40 mg/kg, route oral; details: read-out: Drug uptake
[2] = Biodistribution in orally dosed human urine assessed as 12-hydroxy muraglitazar level by LC/MS analysis; assay type: ADME, organism-based; details: in vivo, po
Rattus norvegicus [3] = assay: Biodistribution in orally dosed Sprague-Dawley rat urine assessed as 17-hydroxy muraglitazar level by LC/MS analysis; assay type: ADME, organism-based; details: in vivo, po
Rattus norvegicus [4] = assay: Biodistribution in orally dosed Sprague-Dawley rat feces assessed as 17-hydroxy muraglitazar level by LC/MS analysis; assay type: ADME, organism-based; details: in vivo, po, pooled result: one value given for 6 cell lines, strains, targets or settings
[5] = Biodistribution in orally dosed cynomolgus monkey urine assessed as muraglitazar glucuronide level by LC/MS analysis; assay type: ADME, organism-based, Macaca fascicularis; details: in vivo, po
[6] = Biodistribution in orally dosed cynomolgus monkey feces assessed as O-demethyl muraglitazar level by LC/MS analysis; assay type: ADME, organism-based, Macaca fascicularis; details: in vivo, po
[7] = Metabolic stability in cynomolgus monkey hepatocytes assessed as muraglitazar glucuronide level by LC/MS analysis relative to control; assay type: ADME, cell-based, Macaca fascicularis, Hepatocyte
[8] = Metabolic stability in cynomolgus monkey hepatocytes assessed as O-dealkyl-O-demethyl muraglitazar level by LC/MS analysis relative to control; assay type: ADME, cell-based, Macaca fascicularis, Hepatocyte
Hepatocyte [9] = assay: Metabolic stability in human hepatocytes assessed as 8,12-dihydroxy muraglitazar level by LC/MS analysis relative to control; assay type: ADME, cell-based
Hepatocyte [10] = assay: Metabolic stability in human hepatocytes assessed as 17-hydroxy muraglitazar level by LC/MS analysis relative to control; assay type: ADME, cell-based
[11] = Biodistribution in orally dosed cynomolgus monkey feces assessed as acetylimide derivative of muraglitazar level by LC/MS analysis; assay type: ADME, organism-based, Macaca fascicularis; details: in vivo, po
[12] = Biodistribution in orally dosed Beagle dog urine assessed as O-dealkyl-O-demethyl muraglitazar level by LC/MS analysis; assay type: ADME, organism-based, Canis lupus familiaris; details: in vivo, po
[13] = Biodistribution in orally dosed human urine assessed as O-dealkyl-O-demethyl muraglitazar level by LC/MS analysis; assay type: ADME, organism-based; details: in vivo, po
[14] = Metabolic stability in CD1 mouse hepatocytes assessed as 8,12-dihydroxy muraglitazar level by LC/MS analysis relative to control; assay type: ADME, cell-based, Hepatocyte
[15] = Metabolic stability in CD1 mouse hepatocytes assessed as 17-hydroxy-O-demethyl muraglitazar level by LC/MS analysis relative to control; assay type: ADME, cell-based, Hepatocyte
[16] = Metabolic stability in CD1 mouse hepatocytes assessed as 9-hydroxy-O-demethyl muraglitazar level by LC/MS analysis relative to control; assay type: ADME, cell-based, Hepatocyte
[17] = Metabolic stability in CD1 mouse hepatocytes assessed as 12,17-dihydroxy muraglitazar level by LC/MS analysis relative to control; assay type: ADME, cell-based, Hepatocyte
[18] = Metabolic stability in CD1 mouse hepatocytes assessed as 9-hydroxy muraglitazar level by LC/MS analysis relative to control; assay type: ADME, cell-based, Hepatocyte
Hepatocyte [19] = assay: Metabolic stability in Sprague-Dawley rat hepatocytes assessed as muraglitazar glucuronide level by LC/MS analysis relative to control; assay type: ADME, cell-based
[20] = Biodistribution in orally dosed cynomolgus monkey feces assessed as 12,17-dihydroxy muraglitazar level by LC/MS analysis; assay type: ADME, organism-based, Macaca fascicularis; details: in vivo, po
Rattus norvegicus [21] = assay: Biodistribution in orally dosed Sprague-Dawley rat urine assessed as 8-hydroxy muraglitazar level by LC/MS analysis; assay type: ADME, organism-based; details: in vivo, po
[22] = Biodistribution in orally dosed Beagle dog feces assessed as 8-hydroxy muraglitazar level by LC/MS analysis; assay type: ADME, organism-based, Canis lupus familiaris; details: in vivo, po
[23] = Biodistribution in orally dosed human feces assessed as 8-hydroxy muraglitazar level by LC/MS analysis; assay type: ADME, organism-based; details: in vivo, po
[24] = Fecal excretion of compound in orally dosed cynomolgus monkey within 48 hrs; assay type: ADME, organism-based, Macaca fascicularis; details: faeces, po, read-out: Activity
Rattus norvegicus [25] = assay: Cmax in Sprague-Dawley rat at 10 mg/kg, po after 24 hrs; assay type: ADME, organism-based; parameters: dose 10 mg/kg, route oral; details: in vivo
Plasma [26] = assay: Biodistribution in orally dosed Beagle dog plasma assessed as muraglitazar glucuronide level after 1 hr by LC/MS analysis; assay type: ADME, organism-based, Canis lupus familiaris; details: in vivo, po
Plasma [27] = assay: Biodistribution in orally dosed cynomolgus monkey plasma assessed as muraglitazar glucuronide level after 4 hrs by LC/MS analysis; assay type: ADME, organism-based, Macaca fascicularis; details: in vivo, po
[28] = Biodistribution in orally dosed Beagle dog feces assessed as 9,12-dihydroxy muraglitazar level by LC/MS analysis; assay type: ADME, organism-based, Canis lupus familiaris; details: in vivo, po
Rattus norvegicus [29] = assay: Biodistribution in orally dosed Sprague-Dawley rat urine assessed as 12-hydroxy-O-demethyl muraglitazar level by LC/MS analysis; assay type: ADME, organism-based; details: in vivo, po
[30] = Biodistribution in orally dosed cynomolgus monkey urine assessed as 12-hydroxy-O-demethyl muraglitazar level by LC/MS analysis; assay type: ADME, organism-based, Macaca fascicularis; details: in vivo, po
[31] = Biodistribution in orally dosed human feces assessed as 12-hydroxy-O-demethyl muraglitazar level by LC/MS analysis; assay type: ADME, organism-based; details: in vivo, po
[32] = Drug concentration in bile duct-cannulated Sprague-Dawley rat urine assessed as recovery of radioactive dose at 11 mg/kg, po after 24 hrs; assay type: ADME, organism-based; parameters: dose 11 mg/kg, route oral; details: in vivo
[33] = Drug concentration in Sprague-Dawley rat feces assessed as recovery of radioactive dose at 11 mg/kg, po after 168 hrs; assay type: ADME, organism-based; parameters: dose 11 mg/kg, route oral; details: in vivo
[34] = Drug concentration in bile duct-cannulated CD1 mouse bile assessed as recovery of radioactive dose at 1 mg/kg, po after 24 hrs; assay type: ADME, organism-based; parameters: dose 1 mg/kg, route oral; details: in vivo
Plasma [35] = assay: Biodistribution in orally dosed cynomolgus monkey plasma assessed as 12-dihydroxy muraglitazar level after 1 hr by LC/MS analysis; assay type: ADME, organism-based, Macaca fascicularis; details: in vivo, po
Plasma [36] = assay: Biodistribution in orally dosed cynomolgus monkey plasma assessed as O-demethyl muraglitazar glucuronide level after 1 hr by LC/MS analysis; assay type: ADME, organism-based, Macaca fascicularis; details: in vivo, po
Plasma [37] = assay: Biodistribution in orally dosed Beagle dog plasma assessed as 12-hydroxy-O-demethyl muraglitazar level after 1 hr by LC/MS analysis; assay type: ADME, organism-based, Canis lupus familiaris; details: in vivo, po
Plasma [38] = assay: Biodistribution in orally dosed human plasma assessed as 12-hydroxy-O-demethyl muraglitazar level after 4 hrs by LC/MS analysis; assay type: ADME, organism-based; details: in vivo, po
Plasma [39] = assay: Biodistribution in orally dosed cynomolgus monkey plasma assessed as 17-hydroxy-O-demethyl muraglitazar level after 4 hrs by LC/MS analysis; assay type: ADME, organism-based, Macaca fascicularis; details: in vivo, po
[40] = Half life in Sprague-Dawley rat at 10 mg/kg, po after 24 hrs; assay type: ADME, organism-based; parameters: dose 10 mg/kg, route oral; details: in vivo
[41] = Biodistribution in orally dosed cynomolgus monkey urine assessed as O-dealkyl muraglitazar level by LC/MS analysis; assay type: ADME, organism-based, Macaca fascicularis; details: in vivo, po
[42] = Biodistribution in orally dosed cynomolgus monkey feces assessed as O-dealkyl muraglitazar level by LC/MS analysis; assay type: ADME, organism-based, Macaca fascicularis; details: in vivo, po
Hepatocyte [43] = assay: Metabolic stability in human hepatocytes assessed as di-oxygenated muraglitazar level by LC/MS analysis relative to control; assay type: ADME, cell-based

## COc1ccc(OC(=O)N(CC(=O)O)Cc2ccc(OCCc3nc(-c4ccccc4)oc3C)cc2)cc1 [MURAGLITAZAR]
[1]
  dose excreted at 24 h: 13.2%
[2]
  Drug uptake: 0.03%
Rattus norvegicus [3]
  Drug uptake: < 0.01%
Rattus norvegicus [4]
  Drug uptake: 0.88%
[5]
  Drug uptake: 0.02%
[6]
  Drug uptake: 7.24%
[7]
  Drug uptake: 1.7%
[8]
  Drug uptake: < 0.2%
Hepatocyte [9]
  Drug uptake: < 0.2%
Hepatocyte [10]
  Drug uptake: 4.4%
[11]
  Drug uptake: 0.16%
[12]
  Drug uptake: 0.01%
[13]
  Drug uptake: 0.04%
[14]
  Drug uptake: 0.3%
[15]
  Drug uptake: 0.3%
[16]
  Drug uptake: 1.2%
[17]
  Drug uptake: 0.8%
[18]
  Drug uptake: 1.3%
Hepatocyte [19]
  Drug uptake: 0.5%
[20]
  Drug uptake: 6.43%
Rattus norvegicus [21]
  Drug uptake: < 0.01%
[22]
  Drug uptake: 0.18%
[23]
  Drug uptake: 0.56%
[24]
  dose excreted at 48 h: 30%
Rattus norvegicus [25]
  Cmax: 13.5 ugequiv/ml
Plasma [26]
  Drug uptake: < 0.05%
Plasma [27]
  Drug uptake: 0.2%
[28]
  Drug uptake: 0.34%
Rattus norvegicus [29]
  Drug uptake: 0.01%
[30]
  Drug uptake: 0.26%
[31]
  Drug uptake: 11.45%
[32]
  Drug uptake: 0.98%
[33]
  Drug uptake: 87.7%
[34]
  Drug uptake: 75%
Plasma [35]
  Drug uptake: 0.9%
Plasma [36]
  Drug uptake: 0.1%
Plasma [37]
  Drug uptake: 1%
Plasma [38]
  Drug uptake: 0.3%
Plasma [39]
  Drug uptake: < 0.05%
[40]
  half-life: 3.8 h
[41]
  Drug uptake: 1.04%
[42]
  Drug uptake: 2.81%
Hepatocyte [43]
  Drug uptake: 4.5%
